Measured values from patent US6737383B1, “Herbicidal oxadiazolidines” (priority 1999, dated 2004).

How the values were obtained:
[1] = test system: blackgrass; test: Test B pre/postemergence blackgrass; assay type: in vivo, Alopecurus myosuroides; settings: Preemergence
How it was run: (§1)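 Herbicidal effect was estimated by eye on a ten-point control scale after plants spent twelve to sixteen days in a greenhouse following soil or foliar treatment. Foliar sprays targeted plants at one to four leaves; all doses were formulated in a non-phytotoxic solvent with surfactant.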

[2] = test system: rice; test: Test B flood test rice; assay type: in vivo, Oryza sativa
How it was run: (§2)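 Each value is a visual injury score relative to controls, with 10 meaning complete control and 0 no effect. Evaluation took place twelve to sixteen days after the 2-leaf-stage plants were treated and kept in the greenhouse.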

[3] = test system: rape; test: Test B pre/postemergence rape; assay type: in vivo, Brassica napus; settings: Preemergence
How it was run: as §1

[4] = test system: wheat; test: Test B pre/postemergence wheat; assay type: in vivo, Triticum aestivum; settings: Preemergence
How it was run: as §1

[5] = test system: smallflower flatsedge; test: Test B flood test smallflower flatsedge; assay type: in vivo, Cyperus difformis
How it was run: as §2

[6] = test system: sugar beet; test: Test B pre/postemergence sugar beet; assay type: in vivo, Beta vulgaris; settings: Preemergence
How it was run: as §1

[7] = test system: cocklebur; test: Test B pre/postemergence cocklebur; assay type: in vivo, Xanthium strumarium; settings: Preemergence
How it was run: as §1

[8] = test system: bedstraw; test: Test B pre/postemergence bedstraw; assay type: in vivo, Galium aparine; settings: Preemergence
How it was run: as §1

[9] = test system: wild oat; test: Test B pre/postemergence wild oat; assay type: in vivo, Avena fatua; settings: Preemergence
How it was run: as §1

[10] = test system: duck salad; test: Test B flood test duck salad; assay type: in vivo, Heteranthera limosa
How it was run: as §2

[11] = test system: pigweed; test: Test B pre/postemergence pigweed; assay type: in vivo, Amaranthus retroflexus; settings: Preemergence
How it was run: as §1

[12] = test system: soybean; test: Test B pre/postemergence soybean; assay type: in vivo, Glycine max; settings: Preemergence
How it was run: as §1

[13] = test system: velvetleaf; test: Test B pre/postemergence velvetleaf; assay type: in vivo, Abutilon theophrasti; settings: Preemergence
How it was run: as §1

[14] = test system: crabgrass; test: Test B pre/postemergence crabgrass; assay type: in vivo, Digitaria sanguinalis; settings: Preemergence
How it was run: as §1

[15] = test system: corn; test: Test B pre/postemergence corn; assay type: in vivo, Zea mays; settings: Preemergence
How it was run: as §1

[16] = test system: morningglory; test: Test B pre/postemergence morningglory; assay type: in vivo, Ipomoea hederacea; settings: Preemergence
How it was run: as §1

[17] = test system: giant foxtail; test: Test B pre/postemergence giant foxtail; assay type: in vivo, Setaria faberii; settings: Preemergence
How it was run: as §1

[18] = test system: surinam grass; test: Test B pre/postemergence surinam grass; assay type: in vivo, Brachiaria decumbens; settings: Preemergence
How it was run: as §1

[19] = test system: purple nutsedge; test: Test B pre/postemergence purple nutsedge; assay type: in vivo, Cyperus rotundus; settings: Preemergence
How it was run: as §1

[20] = test system: bamyardgrass; test: Test B flood test barnyardgrass; assay type: in vivo, Echinochloa crus-galli
How it was run: as §2

[21] = Rate 62 g/ha, scale of 0 to 10 where 0 is no effect and 10 is complete control
[22] = Rate 125 g/ha, scale of 0 to 10 where 0 is no effect and 10 is complete control
[23] = Rate 250 g/ha, scale 0 (no effect) to 10 (complete control)
[24] = Rate 500 g/ha, scale 0 to 10 (0 no effect, 10 complete control)
[25] = Pre-emergence, Rate 62 g/ha, scale 0 to 10, 0 is no effect, 10 is complete control
[26] = Rate 125 g/ha, Pre-emergence section (flood test species), scale 0 to 10, 0 no effect, 10 complete control
[27] = Rate 250 g/ha, Pre-emergence (flood test species), scale 0 to 10, 0 is no effect, 10 is complete control
[28] = Rate 500 g/ha, Pre-emergence section of Table B, 0 to 10 scale (0 no effect, 10 complete control)

Compound: CC(C)N(C(=O)n1oc(=O)n(C(C)C2CC2)c1=O)c1ccc(F)cc1F (centres unmarked) [Compound 720]
- Blackgrass plant response rating [1, 21]: 9
- Plant response rating, Blackgrass [1, 22]: 9
- Blackgrass plant response rating [1, 23]: 10
- Blackgrass plant response rating [1, 24]: 10
- Rice plant response rating [2, 25]: 0
- Rice plant response rating [2, 26]: 0
- Rice plant response rating [2, 27]: 0
- Rice plant response rating [2, 28]: 0
- Rape plant response rating [3, 21]: 6
- Plant response rating, Rape [3, 22]: 7
- Rape plant response rating [3, 23]: 9
- Rape plant response rating [3, 24]: 9
- Wheat plant response rating [4, 21]: 0
- Plant response rating, Wheat [4, 22]: 0
- Wheat plant response rating [4, 23]: 5
- Wheat plant response rating [4, 24]: 5
- S. Flatsedge plant response rating [5, 25]: 0
- S. Flatsedge plant response rating [5, 26]: 0
- S. Flatsedge plant response rating [5, 27]: 0
- S. Flatsedge plant response rating [5, 28]: 0
- Sugarbeets plant response rating [6, 21]: 4
- Plant response rating, Sugarbeets [6, 22]: 6
- Sugarbeets plant response rating [6, 23]: 8
- Sugarbeets plant response rating [6, 24]: 8
- Cocklebur plant response rating [7, 21]: 0
- Plant response rating, Cocklebur [7, 22]: 0
- Cocklebur plant response rating [7, 23]: 0
- Plant response rating, Bedstraw [8, 22]: 10
- Bedstraw plant response rating [8, 23]: 10
- Bedstraw plant response rating [8, 24]: 10
- Wild oats plant response rating [9, 21]: 7
- Plant response rating, Wild oats [9, 22]: 8
- Wild oats plant response rating [9, 23]: 9
- Wild oats plant response rating [9, 24]: 9
- Ducksalad plant response rating [10, 25]: 0
- Ducksalad plant response rating [10, 26]: 0
- Ducksalad plant response rating [10, 27]: 0
- Ducksalad plant response rating [10, 28]: 0
- Redroot pigweed plant response rating [11, 21]: 8
- Plant response rating, Redroot pigweed [11, 22]: 9
- Redroot pigweed plant response rating [11, 23]: 10
- Redroot pigweed plant response rating [11, 24]: 10
- Soybean plant response rating [12, 21]: 0
- Plant response rating, Soybean [12, 22]: 0
- Soybean plant response rating [12, 23]: 0
- Soybean plant response rating [12, 24]: 0
- Velvetleaf plant response rating [13, 21]: 1
- Plant response rating, Velvetleaf [13, 22]: 2
- Velvetleaf plant response rating [13, 23]: 3
- Velvetleaf plant response rating [13, 24]: 3
- Crabgrass plant response rating [14, 21]: 9
- Plant response rating, Crabgrass [14, 22]: 9
- Crabgrass plant response rating [14, 23]: 10
- Crabgrass plant response rating [14, 24]: 10
- Corn plant response rating [15, 21]: 0
- Plant response rating, Corn [15, 22]: 2
- Corn plant response rating [15, 23]: 4
- Morningglory plant response rating [16, 21]: 0
- Plant response rating, Morningglory [16, 22]: 0
- Morningglory plant response rating [16, 24]: 2
- Giant foxtail plant response rating [17, 21]: 9
- Plant response rating, Giant foxtail [17, 22]: 10
- Giant foxtail plant response rating [17, 23]: 10
- Giant foxtail plant response rating [17, 24]: 10
- B. signalgrass plant response rating [18, 21]: 8
- Plant response rating, B. signalgrass [18, 22]: 9
- B. signalgrass plant response rating [18, 23]: 10
- B. signalgrass plant response rating [18, 24]: 10
- Plant response rating, Nutsedge [19, 22]: 0
- Nutsedge plant response rating [19, 24]: 0
- Barnyardgrass plant response rating [20, 25]: 0
- Barnyardgrass plant response rating [20, 26]: 0
- Barnyardgrass plant response rating [20, 27]: 0
- Barnyardgrass plant response rating [20, 28]: 0
